Assay results published in publication PMC12210912, “Pharmacologic properties and inhibitory activity of 6-azasteroids against Mycobacterium leprae in vivo and in vitro” (Microbiology Spectrum, 2025).

Columns and labels:
CYP3A4 = biological target: T1, CYP3A4 (Homo sapiens, UniProt P08684); experiment: inhibition of CYP3A4 enzymatic activity in human liver microsomes; type: in vitro ADME
T1 construct: Human liver microsomes (150 donors pooled, male & female, Corning, Cat# 452117) were used as a source of CYP3A4; tissue Corning 452117; host or cells: pooled human liver microsomes (150 donors)
Protocol: Inhibition of CYP3A4 enzymatic activity was carried out following a standard protocol by Pharmaron, Inc. Human liver microsomes (150 donors pooled, male & female, Corning, Cat# 452117) were used as a source of CYP3A4. The final concentration of human liver microsomes was 0.2 mg/mL. CYP3A4 was tested with testosterone (stock: 10 mM, final: 50 µM) or midazolam (stock: 1 mM, final: 5 µM) as substrate. Aliquots (1 µL) of test compounds (20 µM final concentration), positive control compound ketoconazole (20 µM final concentration), or buffer blank were transferred to a multi-well plate. The reaction was initiated with the addition of 20 µL of 10 mM NADPH solution to provide a final concentration of 1 mM in a 200 µL total volume and carried out at 37°C. The reaction was stopped by the addition of 1.5 volumes of methanol with incubation solution (100 nM alprazolam, 200 nM imipramine, 200 nM labetalol, and 2 µM ketoprofen) at designated time points (5 min midazolam-mediated CYP3A4; 10 min testosterone-mediated CYP3A4). The plate was centrifuged at 3,220 × g for 40 min to precipitate protein. Aliquots of 100 µL of the supernatant were diluted with 100 µL ultra-pure H2O, and the mixture was used for LC-MS/MS analysis to determine concentration of product (hydroxymidazolam or hydroxytestosterone) formed. The % inhibition was calculated by comparison with no inhibitor control. All experiments were performed in duplicate.

Androgen Receptor = biological target: T2, Androgen Receptor (Homo sapiens, UniProt P10275, T878A); experiment: androgen receptor radioligand binding inhibition; settings: [3H]methyltrienolone binding, LNCaP cells cytosol
T2 construct: (ii) AR (human) LNCaP cells (cytosol); host or cells: LNCaP cells (cytosol)
T2 sequence (P10275 1-920 T878A): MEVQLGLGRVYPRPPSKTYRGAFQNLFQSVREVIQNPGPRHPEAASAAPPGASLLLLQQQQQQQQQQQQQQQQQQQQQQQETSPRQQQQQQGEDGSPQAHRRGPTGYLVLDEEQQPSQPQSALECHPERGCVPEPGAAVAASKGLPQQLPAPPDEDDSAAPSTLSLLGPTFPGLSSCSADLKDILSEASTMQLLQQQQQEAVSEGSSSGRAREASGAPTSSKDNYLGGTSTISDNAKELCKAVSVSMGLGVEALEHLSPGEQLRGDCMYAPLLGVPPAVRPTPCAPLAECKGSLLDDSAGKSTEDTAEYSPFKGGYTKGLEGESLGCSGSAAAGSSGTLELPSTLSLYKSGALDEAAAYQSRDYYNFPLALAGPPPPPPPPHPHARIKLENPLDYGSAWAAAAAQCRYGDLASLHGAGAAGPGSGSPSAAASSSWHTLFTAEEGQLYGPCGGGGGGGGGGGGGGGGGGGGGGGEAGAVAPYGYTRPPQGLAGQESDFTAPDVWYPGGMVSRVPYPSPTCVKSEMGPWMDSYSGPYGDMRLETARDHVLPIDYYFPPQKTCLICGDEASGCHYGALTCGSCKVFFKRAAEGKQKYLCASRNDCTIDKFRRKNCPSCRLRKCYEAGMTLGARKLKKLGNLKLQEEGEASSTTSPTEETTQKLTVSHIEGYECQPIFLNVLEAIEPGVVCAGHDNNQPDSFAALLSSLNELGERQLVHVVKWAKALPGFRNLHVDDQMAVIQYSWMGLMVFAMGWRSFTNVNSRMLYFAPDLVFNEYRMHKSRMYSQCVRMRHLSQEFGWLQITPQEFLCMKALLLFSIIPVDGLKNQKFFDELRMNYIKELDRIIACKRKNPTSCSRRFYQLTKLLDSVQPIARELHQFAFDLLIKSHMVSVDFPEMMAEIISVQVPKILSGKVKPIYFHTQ
Protocol: Four nuclear receptors: glucocorticoid, androgen, LXRα, and LXRβ were assayed. Inhibition of agonist binding to each of the receptors was carried out following a standard protocol by Eurofins, Inc., USA. Compounds were tested at 10 µM. Compound binding was measured by scintillation counting and was calculated as a % inhibition of the binding of a radioactively labeled ligand specific for each target. Percent inhibition of control specific binding was expressed as
100−[(measured specific binding)/(control specific binding)∗100]
where measured specific binding is the amount of radioactive ligand binding obtained in the presence of test compounds.
(iii) LXRα (human) recombinant protein expressed in E. coli; agonist radioligand 20 nM [^3H] […] (iv) LXRβ (human) recombinant protein expressed in E. coli; agonist radioligand 20 nM [^3H]

T1 sequence (P08684 whole entry): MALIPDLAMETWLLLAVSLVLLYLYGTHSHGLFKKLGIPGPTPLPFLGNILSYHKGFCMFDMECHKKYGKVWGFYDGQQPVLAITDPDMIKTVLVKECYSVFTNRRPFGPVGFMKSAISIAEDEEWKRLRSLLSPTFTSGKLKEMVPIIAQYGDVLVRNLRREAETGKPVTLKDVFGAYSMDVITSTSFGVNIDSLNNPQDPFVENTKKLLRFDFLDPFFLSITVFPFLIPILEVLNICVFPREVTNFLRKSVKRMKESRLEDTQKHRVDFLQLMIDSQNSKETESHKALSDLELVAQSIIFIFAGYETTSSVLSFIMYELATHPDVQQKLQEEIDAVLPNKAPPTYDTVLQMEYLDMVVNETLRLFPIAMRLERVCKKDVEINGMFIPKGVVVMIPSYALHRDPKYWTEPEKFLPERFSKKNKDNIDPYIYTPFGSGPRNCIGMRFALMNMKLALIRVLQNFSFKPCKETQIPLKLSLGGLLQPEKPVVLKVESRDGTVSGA

C[C@]12CCC3C(CNC4=CC(=O)CC[C@@]43C)C1CCC2C(=O)NC(c1ccc(F)cc1)c1ccc(F)cc1 (stereo partly drawn) [Compound 5]
% inhibition observed, Cyp3A4 Midazolam Isoform (CYP3A4; 20 µM, midazolam substrate): strongly inhibits | % inhibition observed, Cyp3A4 Testosterone Isoform (CYP3A4; 20 µM, testosterone substrate): strongly inhibits | inhibition at 5 min, 20 µM (CYP3A4; both sexes, probe midazolam (5 µM), midazolam substrate, read-out: % inhibition observed, Cyp3A4 Midazolam Isoform): 79% | inhibition at 10 min, 20 µM (CYP3A4; both sexes, probe testosterone (50 µM), testosterone substrate, read-out: % inhibition observed, Cyp3A4 Testosterone Isoform): 68% | % inhibition observed, Androgen Receptor (Androgen Receptor; 10 µM): low binding | inhibition at 10 µM (Androgen Receptor; read-out: % inhibition observed, Androgen Receptor): 9.1%
